Literature values as cited in US10888120B2, “Non-tobacco nicotine containing article” (Philip Morris Products S.A., priority 2013, dated 2021).

Conditions: "experienced" ENDS users (using ENDS for about 1 year)

## CN1CCCC1c1cccnc1 (stereo not shown) [nicotine]
  plasma nicotine concentration (Cmax): 10.3 ng/mL
